Earlier results in US20090088367A1, “Treatment of Insulin Resistance/Metabolic Syndrome to Alleviate the Risks of Dementia” (Burnham Institute For Medical Research, priority 2004, published 2009).

Columns and labels:
[1] = tested on: neurodegeneration induced by beta-amyloid(1-40); details: Miguel-Hidalgo et al., Brain Res 2002
[2] = tested on: APP/PS1 double mutant mice; details: transgenic mouse with mutant amyloid precursor protein and presenilin I; Tanila et al., J Neurochem 2003
tau hyperphosphorylation = details: in culture; okadaic acid-induced changes; Iqbal et al., J Neurochem 2003

Q: For `CC12CC3CC(C)(C1)CC(N)(C3)C2` [memantine, 1-amino-3,5-dimethyladamantine], which “protection from intrahippocampal injection of Aβ” value [1] is on record?
A: offer protection

Q: And the “performance on behavioral tests (T-maze and Morris water maze)” value [2]?
A: improved performance

Q: And the tau hyperphosphorylation (tau hyperphosphorylation)?
A: reduce tau hyperphosphorylation
